# In PubChem BioAssay AID256 (DTP/NCI, 2004):
# Several values for one entry are separate records, joined by “and”; a condition that tells them apart may be missing. Equal entries are not always repeated. Toxic doses and inconclusive results are not listed.
# System: CD2F1 mice, L1210 leukemia ip, survival T/C
# Assay: NCI In Vivo Anticancer Drug Screen. Data for tumor model L1210 Leukemia (intraperitoneal) in CD2F1 (CDF1) mice
# Details: higher = longer survival
# Method in brief: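 Ratio T/C, where T is the treated-group value and C the vehicle-dosed control value, from mice implanted with a transplantable tumor.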
# [1] = endpoint: mean survival time, dose: 100.0 mg/kg/injection, schedule: Q01DX009 (ip), vehicle: other
# [2] = endpoint: mean survival time, dose: 200.0 mg/kg/injection, schedule: Q01DX009 (ip), vehicle: other
# [3] = endpoint: mean survival time, dose: 25.0 mg/kg/injection, schedule: Q01DX009 (ip), vehicle: saline with Tween-80
# [4] = endpoint: mean survival time, dose: 50.0 mg/kg/injection, schedule: Q01DX009 (ip), vehicle: saline with Tween-80
# [5] = endpoint: mean survival time, dose: 100.0 mg/kg/injection, schedule: Q01DX009 (ip), vehicle: saline with Tween-80
# [6] = endpoint: mean survival time, dose: 100.0 mg/kg/injection, schedule: Q04DX003 (ip), vehicle: saline with Tween-80
# [7] = endpoint: mean survival time, dose: 200.0 mg/kg/injection, schedule: Q01DX009 (ip), vehicle: saline with Tween-80
# [8] = endpoint: mean survival time, dose: 400.0 mg/kg/injection, schedule: Q01DX009 (ip), vehicle: saline with Tween-80
# [9] = endpoint: mean survival time, dose: 200.0 mg/kg/injection, schedule: Q04DX003 (ip), vehicle: saline with Tween-80
# [10] = endpoint: mean survival time, dose: 400.0 mg/kg/injection, schedule: Q04DX003 (ip), vehicle: saline with Tween-80
# [11] = endpoint: mean survival time, dose: 100.0 mg/kg/injection, schedule: Q01DX001 (ip), vehicle: saline
# [12] = endpoint: mean survival time, dose: 200.0 mg/kg/injection, schedule: Q01DX001 (ip), vehicle: saline
# [13] = endpoint: mean survival time, dose: 400.0 mg/kg/injection, schedule: Q01DX001 (ip), vehicle: saline
compound,measurement,setting,value
COc1ccccc1NC(=O)NC1C(OC(C)=O)OC(COC(C)=O)C(OC(C)=O)C1OC(C)=O (stereo not drawn),T/C,"endpoint: mean survival time, dose: 12.5 mg/kg/injection, schedule: Q01DX009 (ip), vehicle: other",93 % of control
same,T/C,"endpoint: mean survival time, dose: 25.0 mg/kg/injection, schedule: Q01DX009 (ip), vehicle: other",94 % of control
same,T/C,"endpoint: mean survival time, dose: 50.0 mg/kg/injection, schedule: Q01DX009 (ip), vehicle: other",98 % of control
same,T/C,[1],94 % of control
same,T/C,[2],93 % of control
NC1CCCCC1CC1CCCCC1 (stereo not drawn),T/C,[3],106 % of control
same,T/C,"endpoint: mean survival time, dose: 25.0 mg/kg/injection, schedule: Q04DX003 (ip), vehicle: saline with Tween-80",97 % of control
same,T/C,[4],103 % of control
same,T/C,"endpoint: mean survival time, dose: 50.0 mg/kg/injection, schedule: Q04DX003 (ip), vehicle: saline with Tween-80",97 % of control
same,T/C,[5],95 % of control
same,T/C,[6],98 % of control
N#C/C(=C\c1c(Cl)cccc1Cl)c1ccc([N+](=O)[O-])cc1,T/C,[5],97 % of control
same,T/C,[7],88 % of control
same,T/C,[8],91 % of control
CC1(C)C(C(=O)/C=C/c2ccccc2)C1[N+](=O)[O-] (stereo not drawn),T/C,"endpoint: mean survival time, dose: 100.0 mg/kg/injection, schedule: Q04DX002 (ip), vehicle: other",97 % of control
same,T/C,"endpoint: mean survival time, dose: 200.0 mg/kg/injection, schedule: Q04DX002 (ip), vehicle: other",97 % of control
same,T/C,"endpoint: mean survival time, dose: 400.0 mg/kg/injection, schedule: Q04DX002 (ip), vehicle: other",97 % of control
Cn1c(=O)c2[nH]c(-c3ccc4c(c3)OCO4)nc2n(C)c1=O,T/C,[6],89 % of control
same,T/C,[9],92 % of control
same,T/C,[10],88 % of control
CC(C)(C)N1CC2C(c3ccccc3)NNC2(O)C1=O (stereo not drawn),T/C,[5],109 % of control
same,T/C,[7],113 % of control
same,T/C,[8],105 % of control
Cc1cccc(/C=N\OCCc2ccccc2)n1,T/C,[5],94 % of control
same,T/C,[6],100 % of control
same,T/C,[7],98 % of control
same,T/C,[9],96 % of control
same,T/C,[8],93 % of control
same,T/C,[10],91 % of control
C/C1=C/C2=CC(C)C[C@@H]2C(=O)[C@]2(C)C(=O)CC(C)(C)[C@H]2CC1=O (stereo partly drawn),T/C,"endpoint: mean survival time, dose: 0.13 mg/kg/injection, schedule: Q01DX009 (ip), vehicle: Klucel (hydroxypropylcellulose) (HPC)",98 % of control
same,T/C,"endpoint: mean survival time, dose: 0.25 mg/kg/injection, schedule: Q01DX009 (ip), vehicle: Klucel (hydroxypropylcellulose) (HPC)",95 % of control
same,T/C,"endpoint: mean survival time, dose: 0.5 mg/kg/injection, schedule: Q01DX009 (ip), vehicle: Klucel (hydroxypropylcellulose) (HPC)",93 % of control
same,T/C,"endpoint: mean survival time, dose: 1.0 mg/kg/injection, schedule: Q01DX009 (ip), vehicle: Klucel (hydroxypropylcellulose) (HPC)",90 % of control
O=C(O)c1ccc(C(=O)O)c(C(=O)O)c1.[NH-]C1CCCCCC1[NH-].[Pt+2],T/C,"endpoint: mean survival time, dose: 3.75 mg/kg/injection, schedule: Q04DX003 (ip), vehicle: sodium bicarbonate",159 % of control
same,T/C,"endpoint: mean survival time, dose: 7.5 mg/kg/injection, schedule: Q04DX003 (ip), vehicle: sodium bicarbonate",156 % of control and 250 % of control
same,T/C,"endpoint: mean survival time, dose: 15.0 mg/kg/injection, schedule: Q04DX003 (ip), vehicle: sodium bicarbonate",200 % of control and 219 % of control
same,T/C,"endpoint: mean survival time, dose: 30.0 mg/kg/injection, schedule: Q04DX003 (ip), vehicle: sodium bicarbonate",105 % of control
Cc1ccc(NC(=O)Oc2ccc(C(C)(C)C)cc2Br)c(C)c1,T/C,[4],101 % of control
same,T/C,[5],96 % of control
same,T/C,[7],116 % of control
COC(=O)CCC(=O)c1ccccc1C,T/C,"endpoint: mean survival time, dose: 100.0 mg/kg/injection, schedule: Q04DX003 (ip), vehicle: acetone",100 % of control
same,T/C,"endpoint: mean survival time, dose: 200.0 mg/kg/injection, schedule: Q04DX003 (ip), vehicle: acetone",100 % of control
C=CC(=O)NCNC(=O)C=C,T/C,"endpoint: mean survival time, dose: 6.25 mg/kg/injection, schedule: Q01DX009 (ip), vehicle: saline",97 % of control
same,T/C,"endpoint: mean survival time, dose: 12.5 mg/kg/injection, schedule: Q01DX009 (ip), vehicle: saline",101 % of control and 102 % of control
same,T/C,[3],117 % of control
same,T/C,"endpoint: mean survival time, dose: 25.0 mg/kg/injection, schedule: Q01DX009 (ip), vehicle: saline",97 % of control and 102 % of control
same,T/C,[4],114 % of control
same,T/C,"endpoint: mean survival time, dose: 50.0 mg/kg/injection, schedule: Q01DX009 (ip), vehicle: saline",117 % of control and 104 % of control
same,T/C,"endpoint: mean survival time, dose: 100.0 mg/kg/injection, schedule: Q01DX009 (ip), vehicle: saline",117 % of control and 98 % of control
same,T/C,"endpoint: mean survival time, dose: 200.0 mg/kg/injection, schedule: Q01DX009 (ip), vehicle: saline",96 % of control
c1cc2c3c(cccc3c1)/C(=C1/Cc3cccc4cccc1c34)C2,T/C,[5],107 % of control
same,T/C,[6],103 % of control
same,T/C,[7],113 % of control
same,T/C,[9],104 % of control
same,T/C,[8],110 % of control
same,T/C,[10],107 % of control
OCc1cc(Cl)cc(Cl)c1O,T/C,[1],93 % of control
same,T/C,"endpoint: mean survival time, dose: 100.0 mg/kg/injection, schedule: Q04DX003 (ip), vehicle: other",92 % of control
same,T/C,[2],93 % of control
same,T/C,"endpoint: mean survival time, dose: 200.0 mg/kg/injection, schedule: Q04DX003 (ip), vehicle: other",92 % of control
COc1ccc(-c2cc3ccccc3c(=O)o2)cc1,T/C,[5],98 % of control
same,T/C,[7],98 % of control
same,T/C,[8],91 % of control
COc1ccc(C(O)(CC(=O)O)c2ccc(OC)cc2)cc1,T/C,[11],98 % of control
same,T/C,[12],95 % of control
same,T/C,[13],97 % of control
O=C1CC(=O)N2C=CC=CC2=N1,T/C,"endpoint: mean survival time, dose: 100.0 mg/kg/injection, schedule: Q04DX002 (ip), vehicle: saline",122 % of control
same,T/C,"endpoint: mean survival time, dose: 200.0 mg/kg/injection, schedule: Q04DX002 (ip), vehicle: saline",96 % of control
same,T/C,"endpoint: mean survival time, dose: 400.0 mg/kg/injection, schedule: Q04DX002 (ip), vehicle: saline",92 % of control
Cc1nc2[nH]c(=O)[nH]c(=O)c2[nH]1,T/C,[3],94 % of control
same,T/C,[4],96 % of control
same,T/C,[5],92 % of control
CCCCCCCCCCCCCCOc1ccc(Cl)cc1,T/C,"endpoint: mean survival time, dose: 100.0 mg/kg/injection, schedule: Q04DX002 (ip), vehicle: saline with Tween-80",87 % of control
same,T/C,"endpoint: mean survival time, dose: 200.0 mg/kg/injection, schedule: Q04DX002 (ip), vehicle: saline with Tween-80",87 % of control
O=C1CCCC/C1=N\Nc1ccccc1,T/C,[11],91 % of control
same,T/C,[12],89 % of control
same,T/C,[13],97 % of control
CCOC(=O)CCC(NC(=O)c1ccc(NCc2ccc3nc(N)nc(N)c3c2C)cc1)C(=O)OCC (stereo not drawn),T/C,"endpoint: mean survival time, dose: 0.01 mg/kg/injection, schedule: Q01DX009 (ip), vehicle: saline + alcohol",104 % of control
same,T/C,"endpoint: mean survival time, dose: 0.02 mg/kg/injection, schedule: Q01DX009 (ip), vehicle: saline + alcohol",116 % of control
same,T/C,"endpoint: mean survival time, dose: 0.03 mg/kg/injection, schedule: Q01DX009 (ip), vehicle: saline + alcohol",113 % of control
same,T/C,"endpoint: mean survival time, dose: 0.06 mg/kg/injection, schedule: Q01DX001 (ip), vehicle: saline + alcohol",98 % of control and 101 % of control
same,T/C,"endpoint: mean survival time, dose: 0.06 mg/kg/injection, schedule: Q01DX009 (ip), vehicle: saline + alcohol",113 % of control
same,T/C,"endpoint: mean survival time, dose: 0.11 mg/kg/injection, schedule: Q01DX009 (ip), vehicle: saline + alcohol",110 % of control
same,T/C,"endpoint: mean survival time, dose: 0.12 mg/kg/injection, schedule: Q01DX001 (ip), vehicle: saline + alcohol",112 % of control
same,T/C,"endpoint: mean survival time, dose: 0.13 mg/kg/injection, schedule: Q01DX001 (ip), vehicle: saline + alcohol",104 % of control
same,T/C,"endpoint: mean survival time, dose: 0.25 mg/kg/injection, schedule: Q01DX001 (ip), vehicle: saline + alcohol",121 % of control and 111 % of control
same,T/C,"endpoint: mean survival time, dose: 1.0 mg/kg/injection, schedule: Q01DX001 (ip), vehicle: saline + alcohol",122 % of control
CC1CCC(n2cnc3c(Cl)ncnc32)O1 (stereo not drawn),T/C,"endpoint: median survival time, dose: 12.5 mg/kg/injection, schedule: Q01DX009 (ip), vehicle: Klucel (hydroxypropylcellulose) (HPC)",97 % of control and 101 % of control
same,T/C,"endpoint: median survival time, dose: 25.0 mg/kg/injection, schedule: Q01DX009 (ip), vehicle: Klucel (hydroxypropylcellulose) (HPC)",95 % of control and 100 % of control and 105 % of control
same,T/C,"endpoint: median survival time, dose: 50.0 mg/kg/injection, schedule: Q01DX009 (ip), vehicle: Klucel (hydroxypropylcellulose) (HPC)",113 % of control and 93 % of control and 108 % of control
same,T/C,"endpoint: median survival time, dose: 100.0 mg/kg/injection, schedule: Q01DX009 (ip), vehicle: Klucel (hydroxypropylcellulose) (HPC)",102 % of control and 108 % of control and 111 % of control
same,T/C,"endpoint: median survival time, dose: 200.0 mg/kg/injection, schedule: Q01DX009 (ip), vehicle: Klucel (hydroxypropylcellulose) (HPC)",113 % of control (2×) and 114 % of control
COc1ccc(NC(=O)Oc2cccc3ccccc23)c(Cl)c1,T/C,"endpoint: mean survival time, dose: 50.0 mg/kg/injection, schedule: Q01DX009 (ip), vehicle: Klucel (hydroxypropylcellulose) (HPC)",100 % of control
same,T/C,"endpoint: mean survival time, dose: 100.0 mg/kg/injection, schedule: Q01DX009 (ip), vehicle: Klucel (hydroxypropylcellulose) (HPC)",100 % of control
same,T/C,"endpoint: mean survival time, dose: 100.0 mg/kg/injection, schedule: Q04DX003 (ip), vehicle: Klucel (hydroxypropylcellulose) (HPC)",106 % of control
same,T/C,"endpoint: mean survival time, dose: 200.0 mg/kg/injection, schedule: Q01DX009 (ip), vehicle: Klucel (hydroxypropylcellulose) (HPC)",100 % of control
same,T/C,"endpoint: mean survival time, dose: 200.0 mg/kg/injection, schedule: Q04DX003 (ip), vehicle: Klucel (hydroxypropylcellulose) (HPC)",106 % of control
same,T/C,"endpoint: mean survival time, dose: 400.0 mg/kg/injection, schedule: Q04DX003 (ip), vehicle: Klucel (hydroxypropylcellulose) (HPC)",102 % of control
